“Also recorded” adds a separate entry of the source. Like-named read-outs stand apart in the source and are kept apart here. Positions of bridges follow the written chain, without caps; N, C: chain ends. Non-standard residues stand in square brackets, D forms with d. No end group written: not given here. R8 = C=CCCCCCC[C@@](C)(N)C(=O)O; S5 = C=CCCC[C@](C)(N)C(=O)O
What was measured:
SJSA-X cells [1] = assay: FITC-peptide detection in SJSA-X cellular lysates (cell penetration); conditions: 12 hours
Description: Cells were then lysed and anti-FITC pull down was performed, followed by HDM2 and HDMX western analyses.

HDMX = biological target: T1, HDMX (Homo sapiens, UniProt O15151); assay: Anti-FITC pull down in SJSA-X cells, HDMX western; type: cell-based; conditions: 15 μM, 12 hours
T1 construct: expressed in transfected cells; host or cells: SJSA-X (SJSA-1 engineered to overexpress HDMX)
T1 sequence (O15151 1-490): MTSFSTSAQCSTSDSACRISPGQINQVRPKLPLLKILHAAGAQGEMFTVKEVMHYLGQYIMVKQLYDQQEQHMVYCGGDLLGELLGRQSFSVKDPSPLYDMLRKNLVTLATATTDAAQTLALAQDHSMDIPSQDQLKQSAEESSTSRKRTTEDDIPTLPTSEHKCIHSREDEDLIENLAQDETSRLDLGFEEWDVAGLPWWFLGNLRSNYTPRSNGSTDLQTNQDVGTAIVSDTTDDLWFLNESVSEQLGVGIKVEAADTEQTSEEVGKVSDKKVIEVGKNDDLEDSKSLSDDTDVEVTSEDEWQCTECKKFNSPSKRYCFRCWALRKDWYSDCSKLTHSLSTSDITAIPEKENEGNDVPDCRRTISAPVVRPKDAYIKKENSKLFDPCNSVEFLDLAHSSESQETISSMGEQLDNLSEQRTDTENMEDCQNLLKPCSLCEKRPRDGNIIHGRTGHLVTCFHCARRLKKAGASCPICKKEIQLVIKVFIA

HDM2 = biological target: T2, HDM2 (Homo sapiens, UniProt Q00987); assay: Anti-FITC pull down in SJSA-X cells, HDM2 western; type: cell-based; conditions: 15 μM, 12 hours
T2 construct: endogenous in cells; host or cells: SJSA-X (derivative of SJSA-1 osteosarcoma)

SJSA-X cells [2] = assay: CellTiter-Glo viability, SJSA-X; type: cell-based, human; conditions: SJSA-X (HDM2++/HDMX++), 24 h
Description: (§1) All viability assays were performed in at least triplicate.

p53 [3] = assay: p53 western of JEG-3 cellular extracts (input); type: cell-based, human; conditions: JEG-3, 20 μM, 6 hours
Description: ; Bethyl Laboratories) and western analysis of electrophoresed protein was conducted using p53 (DO-1; EMD Chemicals or FL-393; Santa Cruz Biotechnology), HDMX (MDMX-82; Abcam), and HAUSP (anti-USP7, Bethyl Labs) antibodies, and Western Lightning chemiluminescence reagent (PerkinElmer). […]

MCF-7 cells = assay: CellTiter-Glo viability, MCF-7; type: cell-based, human; conditions: MCF-7 (HDM2+/HDMX+), 24 h
Description: as §1

JEG-3 cells [4] = assay: Caspase-3/7 activation in JEG-3 cells; type: cell-based, human; conditions: JEG-3, 0.3-10 μM, 12 h
Description: Apoptosis studies were performed as follows.

SJSA-DD cells = assay: CellTiter-Glo viability, SJSA-DD; type: cell-based, human; conditions: SJSA-1 overexpressing dominant negative p53 (SJSA-DD), 24 h
Description: (§2) Finally, WS1 normal human fibroblasts were tested to evaluate relative toxicity in tumor versus non-transformed cells.
(§3) Cultured cells were maintained in the appropriate media (SJSA-1, SJSA-X, SJSA-DD, A431 (DMEM); JEG-3, MCF-7, WS1 (EMEM); HCT116 (McCoy's 5A)) supplemented with fetal calf serum and penicillin/streptomycin. […] Viability was assayed by addition of CellTiter-Glo™ chemiluminescence reagent according to the manufacturer's protocol (Promega). Luminescence was measured using a Spectramax M5 microplate reader (Molecular Devices). […] All viability assays were performed in at least triplicate.

[5] = test system: WS1 normal human fibroblasts; assay: CellTiter-Glo viability, WS1 fibroblasts
Description: as §2, §3

JEG-3 xenografts = assay: JEG-3 murine xenograft tumor growth; conditions: 10 mg/kg i.v. once daily for 4 days
JEG-3 cells [6] = assay: CellTiter-Glo viability, JEG-3; type: cell-based, human; conditions: JEG-3 (HDM2−/HDMX++), 24 h
Description: as §1

[7] = test system: p53 transcriptional targets HDM2, p21, MIC-1; assay: qPCR of p53 transcriptional targets in JEG-3 cells; conditions: JEG-3, 20 μM, 6 h
Description: qPCR studies were performed as follows. […] Total RNA was reverse transcribed to cDNA using Superscript III reverse transcriptase (Invitrogen). The derived cDNA was employed as the substrate to measure relative transcript levels by qRT-PCR on a PRISM 7700 system using SYBR Green PCR Master Mix (Applied Biosystems). Primers specific for HDM2, p21, MIC-1, and the UBB control were employed. Triplicate reactions were prepared in 96-well optical PCR plates.

SJSA-1 cells = assay: CellTiter-Glo viability, SJSA-1; type: cell-based, human; conditions: SJSA-1 (HDM2++/HDMX−), 24 h
Description: as §1

HCT116 cells = assay: CellTiter-Glo viability, HCT116; type: cell-based, human; conditions: HCT116 (HDM2+/HDMX+), 24 h
Description: as §1

p53 [8] = assay: p53 western in MCF-7 cells; type: cell-based, human; conditions: MCF-7, 20 μM
Description: FIG. 8 is an image of an immunoblot showing that pharmacologic induction of p53-HDMX complexes sensitizes Nutlin-3-resistant cancer cells to HDMX inhibition. […]. Cells were exposed to MG-132 at 10 μM for 6 hours to induce HDMX-p53 complex formation. Cellular extracts (input-left side immunoblot) and anti-HDMX immunoprecipitates (IP:HDMX-right side immunoblot) were analyzed by SDS-PAGE and Western blotting. Levels of p53 and HAUSP are shown.

Proteolytic stability = type: in vitro ADME
From the text: The amide bond of the peptide backbone is susceptible to hydrolysis by proteases, thereby rendering peptidic compounds vulnerable to rapid degradation in vivo. Peptide helix formation, however, typically buries the amide backbone and therefore may shield it from proteolytic cleavage. The peptidomimetic macrocycles of the present invention may be subjected to in vitro trypsin proteolysis to assess for any change in degradation rate compared to a corresponding uncrosslinked polypeptide. For example, the peptidomimetic macrocycle and a corresponding uncrosslinked polypeptide are incubated with trypsin agarose and the reactions quenched at various time points by centrifugation and subsequent HPLC injection to quantitate the residual substrate by ultraviolet absorption at 280 nm. Briefly, the peptidomimetic macrocycle and peptidomimetic precursor (5 mcg) are incubated with trypsin agarose (Pierce) (S/E~125) for 0, 10, 20, 90, and 180 minutes. Reactions are quenched by tabletop centrifugation at high speed; remaining substrate in the isolated supernatant is quantified by HPLC-based peak detection at 280 nm.

HDM2, p21, and MIC-1 = assay: qPCR of p53 targets in excised JEG-3 tumors; conditions: tumors excised day 5
[9] = test system: bearing the R273H p53 mutation; assay: CellTiter-Glo viability, A431; type: cell-based, human; conditions: A431, inactivating p53 point mutation, 24 h
Description: as §2, §3

[10] = test system: HCT116 cells deficient in p53; assay: CellTiter-Glo viability, HCT116 deficient in p53; type: cell-based, human; conditions: HCT116 with genetic deletion of p53, 24 h
Description: as §2, §3

[11] = test system: RKO or SJSA-1 cancer cells; assay: Cell viability assays, RKO or SJSA-1 cancer cells; type: cell-based
full-length HDMX = biological target: T3, full-length HDMX (Homo sapiens, UniProt O15151); assay: Fluorescence polarization direct binding to HDMX; conditions: FITC-labeled peptides, same dose ranges
T3 construct: plasmid encoding full-length HDMX with N-terminal thioredoxin, S, and hexahistidine tags; thioredoxin (N, cleaved yes); S-tag (N, cleaved yes); hexahistidine (N, cleaved yes); made in house; host or cells: Escherichia coli BL21 (DE3) pLysS, pET32-LIC vector
T3 sequence (O15151 1-490): T1 sequence (O15151 1-490)
Description: Fluorescence polarization was then measured at equilibrium on a SpectraMax M5 microplate reader (Molecular Devices).

T2 sequence (Q00987 whole entry): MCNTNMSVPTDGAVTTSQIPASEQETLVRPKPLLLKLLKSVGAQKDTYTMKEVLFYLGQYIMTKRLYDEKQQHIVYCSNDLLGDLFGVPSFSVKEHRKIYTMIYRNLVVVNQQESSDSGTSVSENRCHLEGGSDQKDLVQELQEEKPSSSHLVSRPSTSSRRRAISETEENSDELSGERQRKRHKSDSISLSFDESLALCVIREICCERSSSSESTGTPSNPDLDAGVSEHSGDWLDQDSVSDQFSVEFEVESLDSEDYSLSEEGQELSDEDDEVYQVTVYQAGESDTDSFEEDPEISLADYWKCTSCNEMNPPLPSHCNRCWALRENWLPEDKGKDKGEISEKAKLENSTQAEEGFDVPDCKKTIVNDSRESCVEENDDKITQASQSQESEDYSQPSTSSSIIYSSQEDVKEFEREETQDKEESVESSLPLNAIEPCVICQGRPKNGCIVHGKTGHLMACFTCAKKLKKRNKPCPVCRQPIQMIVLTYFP

Compound	cell viability (SJSA-X cells [2])	p53 levels (p53 [3])	cell viability (MCF-7 cells)	caspase-3/7 activation (JEG-3 cells [4])	cell viability (SJSA-DD cells)	tumor growth (JEG-3 xenografts)	cell viability (JEG-3 cells [6])	upregulation of p53 transcriptional targets (mRNA) compared to vehicle [7]	cell viability (SJSA-1 cells)	cell viability (HCT116 cells)	cell viability [9]	cell viability [10]	also measured
CC(C)C[C@@H]1NC(=O)[C@H](CCCNC(=N)N)NC(=O)[C@H](Cc2c[nH]c3ccccc23)NC(=O)[C@H](CC(C)C)NC(=O)[C@H](CC(N)=O)NC(=O)[C@](C)(NC(=O)[C@H](Cc2ccccc2)NC(=O)[C@@H](NC(=O)[C@H](CCC(N)=O)NC(=O)[C@H](CCC(N)=O)NC(=O)[C@H](CO)NC(=O)[C@H](CCC(N)=O)NC(=O)CCNC(=S)Nc2ccc3c(c2)C(=O)OC32c3ccc(O)cc3Oc3cc(O)ccc32)[C@@H](C)O)CCCCCCC=CCCC[C@@](C)(C(=O)N[C@@H](CCC(N)=O)C(=O)N[C@@H](CC(N)=O)C(N)=O)NC(=O)[C@H](CC(C)C)NC1=O [FITC-SAH-p53-8]													penetration of intact SJSA-X cells (SJSA-X cells [1]): efficiently penetrated intact SJSA-X cells; co-immunoprecipitation of native HDMX (HDMX): specifically co-immunoprecipitated; co-immunoprecipitation of native HDM2 (HDM2): specifically co-immunoprecipitated
COc1ccc(C2=N[C@@H](c3ccc(Cl)cc3)[C@@H](c3ccc(Cl)cc3)N2C(=O)N2CCNC(=O)C2)c(OC(C)C)c1 [Nutlin-3, reference compound]	little to no response; also recorded: ineffective as a single agent	increase in p53 levels	modestly sensitive	little effect	completely insensitive	not affected	little to no response; also recorded: most resistant	1.5-4 fold	very sensitive	modestly sensitive			viability of normal human fibroblasts ([5]; WS1, 24 h): no impact; p53 levels (p53 [8]): elevate p53 levels
CC(=O)N[C@@H](CC(C)C)C(=O)N[C@@H](CO)C(=O)N[C@@H](CCC(N)=O)C(=O)N[C@@H](CCC(=O)O)C(=O)N[C@H](C(=O)N[C@@H](Cc1ccccc1)C(=O)N[C@]1(C)CCCCCCC=CCCC[C@@](C)(C(=O)N[C@@H](CCC(=O)O)C(=O)N[C@@H](CC(N)=O)C(N)=O)NC(=O)[C@H](CC(C)C)NC(=O)[C@H](CC(C)C)NC(=O)[C@H](CCCCN)NC(=O)[C@H](Cc2c[nH]c3ccccc23)NC(=O)[C@H](CC(C)C)NC(=O)[C@H](CC(=O)O)NC1=O)[C@@H](C)O [SAH-p53-4]													proteolytic stability (Proteolytic stability): improved proteolytic stability
SAH-p53-8: i, i+7 hydrocarbon-stapled p53 transactivation domain peptide (SEQ ID NO: 10), S20 and P27 replaced with olefinic residues	dose-dependent inhibition of cell viability; also recorded: restoring susceptibility	increase in p53 levels	dose-dependent inhibition of cell viability	dose-responsive activation of caspase-3/7	completely insensitive	significantly suppressed tumor growth	dose-dependent inhibition of cell viability; also recorded: most sensitive	5-14 fold	dose-dependent inhibition of cell viability	dose-dependent inhibition of cell viability	similarly unaffected	completely insensitive	transcriptional activation of HDM2, p21, and MIC-1 in tumors (HDM2, p21, and MIC-1): statistically significant transcriptional activation; reduction in tumor burden compared to vehicle and Nutlin-3 (JEG-3 xenografts; 5-day evaluation): 37-46%; cell viability [11]: promoted cell death
SAH-p53-8F19A: negative control peptide: SAH-p53-8 with F19 substituted by alanine (SEQ ID NO: 13) (QSQQTA[R8]NLWRLL[S5]QN; staple 7-14)	inactive		inactive		inactive		inactive		inactive	inactive	inactive	inactive	interaction with HDMX (full-length HDMX): no interaction; viability of normal human fibroblasts [5]: inactive

Reference: US10822374B2, “Cancer therapies and diagnostics” (Dana-Farber Cancer Institute, Inc., priority 2010, dated 2020)
